Assay: xn = mol fraction of the nth substance listed
Conditions: 102 kPa, Liquid; for speed of sound: Frequency=3 MHz, Single path-length method; for mass density: Vibrating tube method; for viscosity: Concentric cylinders viscometry

CCCC1CCCCC1 [1-cyclohexylpropane] + CCCCCCCCCCCC
Conditions	mass density [kg/m3]	speed of sound [m/s]	viscosity [mPa·s]
288.15 K, x1 = 0.1007	755.55	1317.5	–
288.15 K, x1 = 0.2001	758.92	1317.8	–
288.15 K, x1 = 0.3001	762.54	1318.2	–
288.15 K, x1 = 0.4011	766.49	1319.3	–
288.15 K, x1 = 0.5	770.63	1320.1	–
288.15 K, x1 = 0.6004	775.15	1320.9	–
288.15 K, x1 = 0.6995	780	1322.1	–
288.15 K, x1 = 0.7998	785.31	1323.8	–
288.15 K, x1 = 0.8997	791.13	1326.1	–
288.15 K, x1 = 1	797.42	1328.6	–
293.15 K, x1 = 0.1007	751.91	1297.9	1.44
293.15 K, x1 = 0.2001	755.26	1298.2	1.39
293.15 K, x1 = 0.3001	758.87	1298.6	1.34
293.15 K, x1 = 0.4011	762.8	1299.8	1.28
293.15 K, x1 = 0.5	766.92	1300.2	1.23
293.15 K, x1 = 0.6004	771.42	1300.8	1.18
293.15 K, x1 = 0.6995	776.23	1301.9	1.13
293.15 K, x1 = 0.7998	781.51	1303.4	1.08
293.15 K, x1 = 0.8997	787.31	1305.3	1.03
293.15 K, x1 = 1	793.53	1307.7	0.981
298.15 K, x1 = 0.1007	748.27	1278.4	–
298.15 K, x1 = 0.2001	751.61	1278.6	–
298.15 K, x1 = 0.3001	755.2	1279	–
298.15 K, x1 = 0.4011	759.11	1280.3	–
298.15 K, x1 = 0.5	763.2	1280.8	–
298.15 K, x1 = 0.6004	767.68	1280.8	–
298.15 K, x1 = 0.6995	772.46	1281.8	–
298.15 K, x1 = 0.7998	777.71	1283.1	–
298.15 K, x1 = 0.8997	783.46	1284.7	–
298.15 K, x1 = 1	789.63	1287.1	–
303.15 K, x1 = 0.1007	744.62	1259.1	1.23
303.15 K, x1 = 0.2001	747.95	1259.2	1.18
303.15 K, x1 = 0.3001	751.53	1259.5	1.14
303.15 K, x1 = 0.4011	755.41	1260.9	1.1
303.15 K, x1 = 0.5	759.48	1261.1	1.06
303.15 K, x1 = 0.6004	763.93	1261	1.02
303.15 K, x1 = 0.6995	768.68	1261.8	0.977
303.15 K, x1 = 0.7998	773.89	1262.9	0.936
303.15 K, x1 = 0.8997	779.6	1264.3	0.897
303.15 K, x1 = 1	785.72	1266.6	0.856
313.15 K, x1 = 0.1007	737.32	1221.1	1.05
313.15 K, x1 = 0.2001	740.61	1221.1	1.01
313.15 K, x1 = 0.3001	744.15	1221.3	0.979
313.15 K, x1 = 0.4011	747.98	1222.3	0.946
313.15 K, x1 = 0.5	752.01	1222.6	0.914
313.15 K, x1 = 0.6004	756.42	1222.1	0.882
313.15 K, x1 = 0.6995	761.11	1222.6	0.85
313.15 K, x1 = 0.7998	766.24	1223.3	0.818
313.15 K, x1 = 0.8997	771.86	1224.3	0.783
313.15 K, x1 = 1	777.88	1226.2	0.75
323.15 K, x1 = 0.1007	729.98	1183.9	0.909
323.15 K, x1 = 0.2001	733.24	1183.7	0.882
323.15 K, x1 = 0.3001	736.75	1183.8	0.856
323.15 K, x1 = 0.4011	740.52	1184.5	0.831
323.15 K, x1 = 0.5	744.5	1184.6	0.802
323.15 K, x1 = 0.6004	748.86	1183.9	0.776
323.15 K, x1 = 0.6995	753.49	1184.1	0.75
323.15 K, x1 = 0.7998	758.55	1184.6	0.721
323.15 K, x1 = 0.8997	764.09	1185.1	0.694
323.15 K, x1 = 1	770	1186.5	0.668
333.15 K, x1 = 0.1007	722.61	1147.6	0.792
333.15 K, x1 = 0.2001	725.82	1147.3	0.769
333.15 K, x1 = 0.3001	729.3	1147.3	0.75
333.15 K, x1 = 0.4011	733.02	1147.5	0.729
333.15 K, x1 = 0.5	736.95	1147.3	0.707
333.15 K, x1 = 0.6004	741.26	1146.7	0.685
333.15 K, x1 = 0.6995	745.82	1146.7	0.663
333.15 K, x1 = 0.7998	750.81	1146.8	0.64
333.15 K, x1 = 0.8997	756.27	1146.9	0.618
333.15 K, x1 = 1	762.09	1147.7	0.594
